#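 Method: 48-hour compound exposure of cells in 96-well plates, five concentrations, linear interpolation of endpoints. At the GI50, growth is halved. At the TGI there is no net growth.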
# Key:
# Assay in all cases: NCI tumour cell line growth inhibition, 48 h
# [1] = tested on: MDA-MB-231 breast
# [2] = tested on: HS 578T breast
# [3] = tested on: SF-268 CNS
# [4] = tested on: NCI-H23 lung
# [5] = tested on: HL-60(TB) leukemia
# [6] = tested on: SNB-75 CNS
# [7] = tested on: HT29 colon
# [8] = tested on: HCT-116 colon
# [9] = tested on: OVCAR-4 ovarian
# [10] = tested on: NCI-H226 lung
# [11] = tested on: NCI-H460 lung
# [12] = tested on: M14 melanoma
# [13] = tested on: OVCAR-3 ovarian
# [14] = tested on: OVCAR-8 ovarian
# [15] = tested on: MDA-MB-435
# [16] = tested on: NCI-H522 lung
# [17] = tested on: RPMI-8226 leukemia
# [18] = tested on: CCRF-CEM leukemia
# [19] = tested on: DU-145 prostate
# [20] = tested on: MOLT-4 leukemia
# [21] = tested on: HOP-62 NSCLC
# [22] = tested on: IGROV1 ovarian
# [23] = tested on: UO-31 renal
# [24] = tested on: SF-539 CNS
# [25] = tested on: RXF 393 renal
# [26] = tested on: KM12 colon
# [27] = tested on: SK-OV-3 ovarian
# [28] = tested on: BT-549 breast
# [29] = tested on: SR leukemia
# [30] = tested on: A549 NSCLC
# [31] = tested on: 786-0 renal
# [32] = tested on: MDA-MB-468 breast
# [33] = tested on: ACHN renal
# [34] = tested on: A498 renal
# [35] = tested on: K-562 leukemia
# [36] = tested on: EKVX NSCLC
# [37] = tested on: HOP-92 NSCLC
# [38] = tested on: SN12C renal
# [39] = tested on: COLO 205 colon
# [40] = tested on: U251 CNS
# [41] = tested on: OVCAR-5 ovarian
# [42] = tested on: SNB-19 CNS
# [43] = tested on: NCI/ADR-RES ovarian
# [44] = tested on: HCT-15 colon
# [45] = tested on: UACC-62 melanoma
# [46] = tested on: PC-3 prostate
# [47] = tested on: SW-620 colon
# [48] = tested on: LOX IMVI melanoma
# [49] = tested on: SK-MEL-5 melanoma
# [50] = tested on: UACC-257 melanoma
# [51] = tested on: SK-MEL-2 melanoma
# [52] = tested on: T-47D breast
# [53] = tested on: SK-MEL-28 melanoma
# [54] = tested on: MCF7 breast
# [55] = tested on: MALME-3M melanoma
# [56] = tested on: CAKI-1 renal
# [57] = tested on: HCC-2998 colon
# [58] = tested on: TK-10 renal
smiles,measurement,setting,value
C/C(=N/O)c1ccc(NC(=O)CSc2nnc(-c3ccc(-c4nc5ccc(Cl)cc5[nH]4)cc3)o2)cc1,GI50,[1],1.83 µM
same,TGI,[1],3.52 µM
same,GI50,[2],2.21 µM
same,TGI,[2],5.19 µM
same,GI50,[3],1.83 µM
same,TGI,[3],3.78 µM
same,GI50,[4],1.9 µM
same,TGI,[4],4.09 µM
same,GI50,[5],3.63 µM
same,TGI,[5],17.4 µM
same,GI50,[6],1.57 µM
same,TGI,[6],3.41 µM
same,GI50,[7],2.44 µM
same,TGI,[7],6 µM
same,GI50,[8],2.29 µM
same,TGI,[8],5.73 µM
same,GI50,[9],2.04 µM
same,TGI,[9],4.58 µM
same,GI50,[10],1.74 µM
same,TGI,[10],3.68 µM
same,GI50,[11],1.61 µM
same,TGI,[11],3.25 µM
same,GI50,[12],1.76 µM
same,TGI,[12],3.54 µM
same,GI50,[13],1.74 µM
same,TGI,[13],3.73 µM
same,GI50,[14],2.94 µM
same,TGI,[14],9.98 µM
same,GI50,[15],1.65 µM
same,TGI,[15],3.27 µM
same,GI50,[16],1.57 µM
same,TGI,[16],3.42 µM
same,GI50,[17],3.16 µM
same,TGI,[17],15 µM
same,GI50,[18],2.33 µM
same,TGI,[18],6.75 µM
same,GI50,[19],2.09 µM
same,TGI,[19],4.73 µM
same,GI50,[20],2.62 µM
same,TGI,[20],12.4 µM
same,GI50,[21],2.01 µM
same,TGI,[21],3.95 µM
same,GI50,[22],3.35 µM
same,TGI,[22],12 µM
same,GI50,[23],37.2 µM
same,TGI,[23],> 100 µM
same,GI50,[24],1.71 µM
same,TGI,[24],3.08 µM
same,GI50,[25],1.75 µM
same,TGI,[25],3.31 µM
same,GI50,[26],2.66 µM
same,TGI,[26],8.48 µM
same,GI50,[27],2.38 µM
same,TGI,[27],5.33 µM
same,GI50,[28],2.39 µM
same,TGI,[28],4.35 µM
same,GI50,[29],2.84 µM
same,TGI,[29],15.5 µM
same,GI50,[30],1.98 µM
same,TGI,[30],4.2 µM
same,GI50,[31],1.91 µM
same,TGI,[31],3.53 µM
same,GI50,[32],1.81 µM
same,TGI,[32],4.09 µM
same,GI50,[33],2.7 µM
same,TGI,[33],8.65 µM
same,GI50,[34],1.94 µM
same,TGI,[34],4.58 µM
same,GI50,[35],2.63 µM
same,TGI,[35],10.6 µM
same,GI50,[36],3.05 µM
same,TGI,[36],13.2 µM
same,GI50,[37],1.83 µM
same,TGI,[37],3.86 µM
same,GI50,[38],1.87 µM
same,TGI,[38],4.06 µM
same,GI50,[39],3.14 µM
same,TGI,[39],12.2 µM
same,GI50,[40],1.83 µM
same,TGI,[40],3.4 µM
same,GI50,[41],3.33 µM
same,TGI,[41],13.8 µM
same,GI50,[42],1.9 µM
same,TGI,[42],3.62 µM
same,GI50,[43],84.7 µM
same,TGI,[43],> 100 µM
same,GI50,[44],34.5 µM
same,TGI,[44],> 100 µM
same,GI50,[45],1.78 µM
same,TGI,[45],3.36 µM
same,GI50,[46],2.21 µM
same,TGI,[46],5.08 µM
same,GI50,[47],2.84 µM
same,TGI,[47],8.54 µM
same,GI50,[48],1.57 µM
same,TGI,[48],2.92 µM
same,GI50,[49],1.75 µM
same,TGI,[49],3.33 µM
same,GI50,[50],2.06 µM
same,TGI,[50],4.5 µM
same,GI50,[51],1.78 µM
same,TGI,[51],3.68 µM
same,GI50,[52],2.05 µM
same,TGI,[52],4.5 µM
same,GI50,[53],1.73 µM
same,TGI,[53],3.18 µM
same,GI50,[54],2.2 µM
same,TGI,[54],5.93 µM
same,GI50,[55],1.58 µM
same,TGI,[55],2.95 µM
same,GI50,[56],1.85 µM
same,TGI,[56],3.73 µM
same,GI50,[57],11.2 µM
same,TGI,[57],> 100 µM
same,GI50,[58],5.78 µM
same,TGI,[58],17.4 µM

# — PubChem BioAssay (NCI)
